Where “and” joins values, the source holds several entries; their conditions need not be identical. Identical values can stand only once. Like-named read-outs stand apart in the source and are kept apart here.
How the values were obtained:
Assay type in all cases: cell-based
[1] = tested on: HepG2 cells; test: DAPI staining for cell apoptosis (morphology); details: HepG2, 2, 4, 8 μM, 24 h
Protocol: Apoptotic morphological changes were determined by DAPI staining. HepG2 cells were seeded in a 48-well plate and treated with different concentrations of KJ-5 and KJ-12 (2, 4, and 8 μM) for 24 h. After 24 h, they were then washed with PBS and fixed with 4% paraformaldehyde for 20 min. Subsequently, they were then washed with PBS and treated with DAPI (10 μg/mL) at 37°C for 5 min. After washing with PBS, the cells were resuspended in PBS for the rest of the experiment. A fluorescence microscope was used to observe the apoptotic morphological changes.

[2] = tested on: p-H2AX in HepG2 cells; test: H2AX phosphorylation by immunofluorescence and Western blotting; details: HepG2, 24 h
Protocol: HepG2 cells were plated in laser confocal dishes (Nest, China), followed by the addition of KJ-5 or KJ-12 for 24 h. Then, 4% paraformaldehyde was added to each laser confocal dish for 20 min after rinsing with PBS. Before the goat serum was added to block for 1 h, 0.5% Triton X-100 was used to penetrate HepG2 for 30 min. Subsequently, the cells were incubated with p-H2AX (Cell Signaling Technology, MA, United States) at a 1:800 dilution at 4°C overnight. The cells were rinsed with PBS and incubated with Alexa Fluor 488 (Proteintech, Wuhan, China) at a 1:1000 dilution in dark at room temperature for 1 h. DAPI was used to stain the cell nucleus for 5 min. Then, the cells were rinsed with PBS before observing the cells under a laser confocal microscope (Nikon, Tokyo, Japan).
After being pretreated with either KJ-5 or KJ-12 at concentrations of 2, 4, or 8 μM for 24 h, the cells were harvested and lysed using an ice-cold cell lysis buffer from Beyotime Biotechnology (Shanghai, China). The proteins were mixed with a loading buffer and denatured by heating at 95°C–100°C for 5–10 min. Equal amounts of protein were loaded onto a 10% SDS-PAGE gel along with a molecular weight marker and separated by electrophoresis for 2 h. The separated proteins were transferred onto a PVDF membrane, which was blocked with 5% non-fat milk for non-specific binding sites on the membrane. […]

[3] = tested on: KYSE-30 cells; test: MTT assay for cell proliferation, KYSE-30; parameters: key to Inhibitory rate: inhibition rate = 1 - mean A490 sample/mean A490 control (fraction)
Summary of the method: (§1)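 Proliferation read-out is MTT reduction (4 h) after 48 h treatment with KJ-5 or KJ-12 across 0, 1, 2, 4, 8, 16 and 32 μM. Cultures in 10% FBS DMEM, 37 °C, plated at 10^5 cells/mL; A490 of DMSO-dissolved formazan compared with untreated control.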

[4] = tested on: HepG2 cells; test: MTT assay for cell proliferation and cytotoxicity, HepG2; parameters: key to Inhibitory rate: inhibition rate = 1 - mean A490 sample/mean A490 control (fraction)
Summary of the method: as §1

[5] = tested on: MCF-7 cells; test: MTT assay for cell proliferation, MCF-7; parameters: key to Inhibitory rate / Inhibition rate: inhibition rate = 1 - mean A490 sample/mean A490 control (fraction)
Summary of the method: as §1

[6] = tested on: Bcl-2, Bax, cleaved caspase-9, cleaved caspase-3, cleaved PARP in HepG2 cells; test: Western blot of mitochondrial apoptotic proteins
Protocol: After being pretreated with either KJ-5 or KJ-12 at concentrations of 2, 4, or 8 μM for 24 h, the cells were harvested and lysed using an ice-cold cell lysis buffer from Beyotime Biotechnology (Shanghai, China). The proteins were mixed with a loading buffer and denatured by heating at 95°C–100°C for 5–10 min. Equal amounts of protein were loaded onto a 10% SDS-PAGE gel along with a molecular weight marker and separated by electrophoresis for 2 h. The separated proteins were transferred onto a PVDF membrane, which was blocked with 5% non-fat milk for non-specific binding sites on the membrane. Then, the membrane was incubated with primary antibodies at 4°C overnight. Following incubation with the primary antibody, the membrane was incubated with HRP-conjugated goat anti-rabbit or goat anti-mouse IgG at 37°C for 1 h. Protein bands were visualized on the PVDF membrane using an ECL hypersensitive chemiluminescence solution and a Bio-Rad gel imaging and analysis system.

[7] = HepG2, fraction, per experiment
[8] = MCF-7, fraction, per experiment

Compound: COc1c2n(cc(C(=O)Nc3cccc(-c4cn(-c5cc(C(F)(F)F)cc(C(F)(F)F)c5)nn4)c3)c1=O)C[C@H]1OC[C@H](C)N1C2=O [KJ-5]
- Apoptotic morphological changes, DAPI staining [1]: cell shrinkage, nuclear condensation, and chromatin fragmentation
- Expression of p-H2AX (DNA damage marker) [2]: increased the expression of p-H2AX
- IC50 ([3]; Homo sapiens, KYSE-30, 48 h, MTT, read-out: IC50 KYSE-30): 8.51 ± 0.43 µM
- IC50 ([3]; Homo sapiens, KYSE-30, KYSE-30, one of three experiments, unit inferred, read-out: IC50, single experiment, KYSE-30): 8.96 µM
- inhibition at 16 µM ([3]; Homo sapiens, preliminary screening, KYSE-30, 16 μM, 48 h, mean±SD, unit inferred, read-out: Inhibition rate (16μM), 48 h, KYSE-30): 65.7 ± 0.91%
- ODtreated/ODcontrol ([3]; KYSE-30, first of three experiments): 0.346
- Inhibitory rate ([3]; KYSE-30, given as fraction, first of three experiments): 0.654
- Inhibitory rate ([3]; KYSE-30, given as fraction, second of three experiments): 0.6669
- Inhibitory rate ([3]; KYSE-30, given as fraction, third of three experiments): 0.6494
- Inhibitory rate ([3]; KYSE-30, group 1 (concentration), fraction, single experiments): 0.1205 and 0.156 and 0.08655
- ODtreated/ODcontrol ([3]; KYSE-30, group 1 (concentration), single experiments): 0.8795 and 0.844 and 0.9135
- Inhibitory rate ([3]; KYSE-30, group 2 (concentration), fraction, single experiments): 0.2874 and 0.3093 and 0.2896
- ODtreated/ODcontrol ([3]; KYSE-30, group 2 (concentration), single experiments): 0.7126 and 0.6907 and 0.7104
- Inhibitory rate ([3]; KYSE-30, group 4 (concentration), fraction, single experiments): 0.3928 and 0.4106 and 0.3851
- ODtreated/ODcontrol ([3]; KYSE-30, group 4 (concentration), single experiments): 0.6072 and 0.5895 and 0.6149
- Inhibitory rate ([3]; KYSE-30, group 8 (concentration), fraction, single experiments): 0.503 and 0.5061 and 0.5028
- ODtreated/ODcontrol ([3]; KYSE-30, group 8 (concentration), single experiments): 0.497 and 0.4939 and 0.4972
- Inhibitory rate ([3]; KYSE-30, group 16 (concentration), fraction, single experiments): 0.6001 and 0.6158 and 0.6257
- ODtreated/ODcontrol ([3]; KYSE-30, group 16 (concentration), single experiments): 0.3999 and 0.3842 and 0.3743
- Inhibitory rate ([3]; KYSE-30, group 32 (concentration), fraction, single experiments): 0.6693 and 0.6807 and 0.6972
- ODtreated/ODcontrol ([3]; KYSE-30, group 32 (concentration), single experiments): 0.3307 and 0.3193 and 0.3028
- IC50 ([3]; KYSE-30, one of three experiments, unit inferred, read-out: IC50, single experiment, KYSE-30): 8.11 µM and 8.46 µM
- ODtreated/ODcontrol ([3]; KYSE-30, second of three experiments): 0.3331
- ODtreated/ODcontrol ([3]; KYSE-30, third of three experiments): 0.3506
- Inhibitory rate [4, 7]: 0.8445 and 0.8592 and 0.8525
- ODtreated/ODcontrol [4, 7]: 0.1555 and 0.1408 and 0.1475
- inhibition at 4 µM ([4]; Homo sapiens, HepG2, liver cancer cells, 4 μM, read-out: Inhibition rate on liver cancer cells): ~50%
- IC50 ([4]; Homo sapiens, HepG2, 48 h, MTT): 4.29 ± 0.1 µM
- inhibition at 16 µM ([4]; Homo sapiens, preliminary screening, HepG2, 16 μM, 48 h, mean±SD, unit inferred, read-out: Inhibition rate (16μM), 48 h, HepG2): 85.21 ± 0.73%
- IC50 ([5]; Homo sapiens, MCF7, 48 h, MCF-7, 48 h, MTT, read-out: IC50 MCF-7): 8.41 ± 0.14 µM
- IC50 ([5]; Homo sapiens, MCF7, MCF-7, one of three experiments, unit inferred, read-out: IC50, single experiment, MCF-7): 8.56 µM
- inhibition at 16 µM ([5]; Homo sapiens, MCF7, preliminary screening, MCF-7, 16 μM, 48 h, mean±SD, unit inferred, read-out: Inhibition rate (16μM), 48 h, MCF-7): 62.6 ± 1.76%
- Inhibitory rate ([5]; MCF-7, group 1 (concentration), fraction, single experiments): 0.147 and 0.1313 and 0.1401
- ODtreated/ODcontrol ([5]; MCF-7, group 1 (concentration), single experiments): 0.853 and 0.8687 and 0.8599
- Inhibitory rate ([5]; MCF-7, group 2 (concentration), fraction, single experiments): 0.1769 and 0.1986 and 0.2186
- ODtreated/ODcontrol ([5]; MCF-7, group 2 (concentration), single experiments): 0.8231 and 0.8014 and 0.7814
- Inhibitory rate ([5]; MCF-7, group 4 (concentration), fraction, single experiments): 0.4303 and 0.4175 and 0.4002
- ODtreated/ODcontrol ([5]; MCF-7, group 4 (concentration), single experiments): 0.5697 and 0.5825 and 0.5998
- Inhibitory rate ([5]; MCF-7, group 8 (concentration), fraction, single experiments): 0.509 and 0.5265 and 0.5019
- ODtreated/ODcontrol ([5]; MCF-7, group 8 (concentration), single experiments): 0.491 and 0.4735 and 0.4981
- Inhibitory rate ([5]; MCF-7, group 16 (concentration), fraction, single experiments): 0.5958 and 0.5893 and 0.6098
- ODtreated/ODcontrol ([5]; MCF-7, group 16 (concentration), single experiments): 0.4042 and 0.4107 and 0.3902
- Inhibitory rate ([5]; MCF-7, group 32 (concentration), fraction, single experiments): 0.7196 and 0.7385 and 0.7334
- ODtreated/ODcontrol ([5]; MCF-7, group 32 (concentration), single experiments): 0.2804 and 0.2615 and 0.2666
- IC50 ([5]; MCF-7, one of three experiments, unit inferred, read-out: IC50, single experiment, MCF-7): 8.29 µM and 8.37 µM
- Inhibitory rate [5, 8]: 0.6368
- ODtreated/ODcontrol [5, 8]: 0.3632
- Inhibitory rate ([5]; given as fraction, second of three experiments): 0.6364
- Inhibition rate ([5]; given as fraction, third of three experiments): 0.6061
- ODtreated/ODcontrol ([5]; second of three experiments): 0.3635
- ODtreated/ODcontrol ([5]; third of three experiments): 0.3939
- Bax levels ([6]; HepG2, 2, 4 or 8 μM, 24 h): increased
- Bax/Bcl-2 ratio ([6]; HepG2, 2, 4 or 8 μM, 24 h): increased
- Bcl-2 protein levels ([6]; HepG2, 2, 4 or 8 μM, 24 h): decreased
- Expression of cleaved PARP ([6]; HepG2, vs control): significantly increased
- Expression of cleaved caspase-3 ([6]; HepG2, vs control): significantly increased
- Expression of cleaved caspase-9 ([6]; HepG2, vs control): significantly increased

— article PMC10590056, “Design and synthesis of cabotegravir derivatives bearing 1,2,3-triazole and evaluation of anti-liver cancer activity” (Frontiers in Pharmacology, 2023)
